pIC50: −log10 of the molar value.
System: senescent HEPG2 cells
Assay: Senescence assay: viability of senescent HEPG2 cells
Format: cell-based
Settings: Homo sapiens, 24-72 hours incubation, viability by CellTiter-Glo or XTT, read-out: Absolute IC50 average HEPG2_SEN IC50
Experimental: (§1) Cells were maintained in DMEM media (high glucose, 4 mM L-glutamine, no sodium pyruvate) supplemented with 10% fetal bovine serum in a humidified incubator at 37° C. with 5% carbon dioxide. Senescence was induced via treatment with a sublethal concentration of chemotherapy (bleomycin, gemcitabine, doxorubicin, 5-fluorouridine), followed by a rest period without chemotherapy similarly to what is reported by others in the field (e.g., Aoshiba et al., 2003 Eur Respir J 22:436-443). Senescence was qualified by low EdU (5-ethynyl-2′-deoxyuridine) incorporation and high SA-β-Gal (senescence-associated beta-galactosidase) staining compared to proliferating untreated cells. Senescent cells were plated into 96-well plates at a density of 5-15,000 cells/well. The next day, compounds were added in duplicate across ten different concentrations spanning roughly four Log10 units. Cells were incubated with the compounds for 24-72 hours, at which point viability was quantified using CellTiter-Glo (Promega) or XTT (R&D Systems). The viability for treated cells was determined relative to untreated control cells. The log of the compound concentration vs. normalized mean viability was fit to a four parameters Hill function with variable slope. The bottom was constrained to be greater than zero. The X mean value for Y=50 was interpolated to determine the absolute IC50. The results in Table 2 indicate that many of the compounds are active in cells and can induce a dose dependent decrease in the viability of senescent HEPG2 and A549 cells.

Row | pIC50 | Structure (SMILES)
1 | 7.00 to 8.00 | C#CC(F)(F)[C@]1(O)CC[C@H]2[C@@H]3CCC4=C/C(=N/OCCOC)CCC4=C3[C@@H](c3ccc(C4CC4)cc3)C[C@@]21C [Compound 3, (8S,11R,13S,14S,17S,E)-11-(4-cyclopropylphenyl)-17-(1,1-difluoroprop-2-yn-1-yl)-17-hydroxy-13-methyl-1,2,6,7,8,11,12,13,14,15,16,17-dodecahydro-3H-cyclopenta[a]phenanthren-3-one O-(2-methoxyethyl)oxime]
2 | 7.00 to 8.00 | C#CC(F)(F)[C@]1(O)CC[C@H]2[C@@H]3CCC4=C/C(=N/NC(=O)O[C@@H]5O[C@@H](C)[C@@H](O)[C@@H](O)[C@@H]5O)CCC4=C3[C@H](c3ccc(C4CC4)cc3)C[C@@]21C [Compound 31, (2S,3S,4R,5S,6S)-3,4,5-trihydroxy-6-methyltetrahydro-2H-pyran-2-yl (E)-2-((8S,11S,13S,14S,17S)-11-(4-cyclopropylphenyl)-17-(1,1-difluoroprop-2-yn-1-yl)-17-hydroxy-13-methyl-1,2,6,7,8,11,12,13,14,15,16,17-dodecahydro-3H-cyclopenta[a]phenanthren-3-ylidene)hydrazine-1-carboxylate]
3 | 7.00 to 8.00 | C#CC(F)(F)[C@]1(O)CC[C@H]2[C@@H]3CCC4=C/C(=N\OCCOC)CCC4=C3[C@@H](c3ccc(C4CC4)cc3)C[C@@]21C [Compound 2, (8S,11R,13S,14S,17S,Z)-11-(4-cyclopropylphenyl)-17-(1,1-difluoroprop-2-yn-1-yl)-17-hydroxy-13-methyl-1,2,6,7,8,11,12,13,14,15,16,17-dodecahydro-3H-cyclopenta[a]phenanthren-3-one O-(2-methoxyethyl)oxime]
4 | 7.00 to 8.00 | C#CC(F)(F)[C@]1(O)CC[C@H]2[C@@H]3CCC4=C/C(=N/N)CCC4=C3[C@H](c3ccc(C4CC4)cc3)C[C@@]21C [Compound 27, (8S,11S,13S,14S,17S,E)-11-(4-cyclopropylphenyl)-17-(1,1-difluoroprop-2-yn-1-yl)-3-hydrazineylidene-13-methyl-2,3,6,7,8,11,12,13,14,15,16,17-dodecahydro-1H-cyclopenta[a]phenanthren-17-ol]
5 | 7.00 to 8.00 | C#CC(F)(F)[C@]1(O)CC[C@H]2[C@@H]3CCC4=C/C(=N/OCCOCCOCCOC)CCC4=C3[C@@H](c3ccc(C4CC4)cc3)C[C@@]21C [Compound 15, (8S,11R,13S,14S,17S,E)-11-(4-cyclopropylphenyl)-17-(1,1-difluoroprop-2-yn-1-yl)-17-hydroxy-13-methyl-1,2,6,7,8,11,12,13,14,15,16,17-dodecahydro-3H-cyclopenta[a]phenanthren-3-one O-(2-(2-(2-methoxyethoxy)ethoxy)ethyl)oxime]

System: senescent A549 cells
Assay: Senescence assay: viability of senescent A549 cells
Format: cell-based
Settings: Homo sapiens, 24-72 hours incubation, viability by CellTiter-Glo or XTT, read-out: Absolute IC50 average A549_SEN IC50
Experimental: as §1

Row | pIC50 | Structure (SMILES)
6 | 7.00 to 8.00 | C#CC(F)(F)[C@]1(O)CC[C@H]2[C@@H]3CCC4=C/C(=N/OCCN5CCNCC5)CCC4=C3[C@@H](c3ccc(C4CC4)cc3)C[C@@]21C [Compound 7, (8S,11R,13S,14S,17S,E)-11-(4-cyclopropylphenyl)-17-(1,1-difluoroprop-2-yn-1-yl)-17-hydroxy-13-methyl-1,2,6,7,8,11,12,13,14,15,16,17-dodecahydro-3H-cyclopenta[a]phenanthren-3-one O-(2-(piperazin-1-yl)ethyl)oxime]
7 | 8.00 to 10.00 | C#CC(F)(F)[C@]1(O)CC[C@H]2[C@@H]3CCC4=CC(=O)CCC4=C3[C@H](c3ccc(OCC4(C)CCC4)cc3)C[C@@]21C [Compound 60, (8S,11S,13S,14S,17S)-17-(1,1-difluoroprop-2-yn-1-yl)-17-hydroxy-13-methyl-11-(4-((1-methylcyclobutyl)methoxy)phenyl)-1,2,6,7,8,11,12,13,14,15,16,17-dodecahydro-3H-cyclopenta[a]phenanthren-3-one]
8 | 6.00 to 7.00 | C#CC(F)(F)[C@]1(O)CC[C@H]2[C@@H]3CCC4=CC(=N[N+](C)(C)C)CCC4=C3[C@H](c3ccc(C4CC4)cc3)C[C@@]21C [Compound 66, 2-((8S,11S,13S,14S,17S)-11-(4-cyclopropylphenyl)-17-(1,1-difluoroprop-2-yn-1-yl)-17-hydroxy-13-methyl-1,2,6,7,8,11,12,13,14,15,16,17-dodecahydro-3H-cyclopenta[a]phenanthren-3-ylidene)-1,1,1-trimethylhydrazin-1-ium]
9 | 7.00 to 8.00 | C#CC(F)(F)[C@]1(O)CC[C@H]2[C@@H]3CCC4=C/C(=N/NC(=O)NC5CC5)CCC4=C3[C@H](c3ccc(OCC(F)(F)F)cc3)C[C@@]21C [Compound 55, (E)-N-cyclopropyl-2-((8S,11S,13S,14S,17S)-17-(1,1-difluoroprop-2-yn-1-yl)-17-hydroxy-13-methyl-11-(4-(2,2,2-trifluoroethoxy)phenyl)-1,2,6,7,8,11,12,13,14,15,16,17-dodecahydro-3H-cyclopenta[a]phenanthren-3-ylidene)hydrazine-1-carboxamide]
10 | 7.00 to 8.00 | C#CC(F)(F)[C@]1(O)CC[C@H]2[C@@H]3CCC4=CC(=O)CCC4=C3[C@H](c3ccc(OCc4ccc(S(=O)(=O)C(F)(F)F)cc4)cc3)C[C@@]21C [Compound 57, (8S,11S,13S,14S,17S)-17-(1,1-difluoroprop-2-yn-1-yl)-17-hydroxy-13-methyl-11-(4-((4-((trifluoromethyl)sulfonyl)benzyl)oxy)phenyl)-1,2,6,7,8,11,12,13,14,15,16,17-dodecahydro-3H-cyclopenta[a]phenanthren-3-one]
11 | 7.00 to 8.00 | C#CC(F)(F)[C@]1(O)CC[C@H]2[C@@H]3CCC4=CC(=O)CCC4=C3[C@@H](c3ccc(OCC4(C)COC4)cc3)C[C@@]21C [Compound 72, (8S,11R,13S,14S,17S)-17-(1,1-difluoroprop-2-yn-1-yl)-17-hydroxy-13-methyl-11-(4-((3-methyloxetan-3-yl)methoxy)phenyl)-1,2,6,7,8,11,12,13,14,15,16,17-dodecahydro-3H-cyclopenta[a]phenanthren-3-one]
12 | 7.00 to 8.00 | C#CC(F)(F)[C@]1(O)CC[C@H]2[C@@H]3CCC4=C(Cl)C(=O)CCC4=C3[C@H](c3ccc(C4CC4)cc3)C[C@@]21C [Compound 52, (8S,11S,13S,14S,17S)-4-chloro-11-(4-cyclopropylphenyl)-17-(1,1-difluoroprop-2-yn-1-yl)-17-hydroxy-13-methyl-1,2,6,7,8,11,12,13,14,15,16,17-dodecahydro-3H-cyclopenta[a]phenanthren-3-one]
13 | 7.00 to 8.00 | C#CC(F)(F)[C@]1(O)CC[C@H]2[C@@H]3CCC4=C/C(=N/NC(=O)[C@H]5C[C@H](O)C5)CCC4=C3[C@@H](c3ccc(OCC(F)(F)F)cc3)C[C@@]21C [Compound 71, trans-N′-((8S,11R,13S,14S,17S)-17-(1,1-difluoroprop-2-yn-1-yl)-17-hydroxy-13-methyl-11-(4-(2,2,2-trifluoroethoxy)phenyl)-1,2,6,7,8,11,12,13,14,15,16,17-dodecahydro-3H-cyclopenta[a]phenanthren-3-ylidene)-3-hydroxycyclobutane-1-carbohydrazide]
14 | 7.00 to 8.00 | C#CC(F)(F)[C@]1(O)CC[C@H]2[C@@H]3CCC4=C/C(=N/OCCN)CCC4=C3[C@H](c3ccc(C4CC4)cc3)C[C@@]21C [Compound 68, 2-((((8S,11S,13S,14S,17S,E)-11-(4-cyclopropylphenyl)-17-(1,1-difluoroprop-2-yn-1-yl)-17-hydroxy-13-methyl-1,2,6,7,8,11,12,13,14,15,16,17-dodecahydro-3H-cyclopenta[a]phenanthren-3-ylidene)amino)oxy)ethan-1-aminium chloride]
15 | 7.00 to 8.00 | C#CC(F)(F)[C@]1(O)CC[C@H]2[C@@H]3CCC4=CC(=O)CCC4=C3[C@H](c3ccc(OS(=O)(=O)C(F)(F)F)cc3)C[C@@]21C [Compound 63, 4-((8S,11S,13S,14S,17S)-17-(1,1-difluoroprop-2-yn-1-yl)-17-hydroxy-13-methyl-3-oxo-2,3,6,7,8,11,12,13,14,15,16,17-dodecahydro-1H-cyclopenta[a]phenanthren-11-yl)phenyl trifluoromethanesulfonate]
16 | 7.00 to 8.00 | C#CC(F)(F)[C@]1(O)CC[C@H]2[C@@H]3CCC4=CC(=O)CCC4=C3[C@@H](c3ccc(OCC(F)(F)F)cc3)C[C@@]21C [Compound 53, (8S,11R,13S,14S,17S)-17-(1,1-difluoroprop-2-yn-1-yl)-17-hydroxy-13-methyl-11-(4-(2,2,2-trifluoroethoxy)phenyl)-1,2,6,7,8,11,12,13,14,15,16,17-dodecahydro-3H-cyclopenta[a]phenanthren-3-one]

Row | Structure (SMILES) | pIC50
17 | C#CC(F)(F)[C@]1(O)CC[C@H]2[C@@H]3CCc4cc(OCCN5CCOCC5)ccc4C3[C@@H](c3ccc(S(=O)(=O)C4CC4)cc3)C[C@@]21C (stereo partly drawn) [Compound 77, (8S,11S,13S,14S,17S)-11-(4-(cyclopropylsulfonyl)phenyl)-17-(1,1-difluoroprop-2-yn-1-yl)-13-methyl-3-(2-morpholinoethoxy)-7,8,9,11,12,13,14,15,16,17-decahydro-6H-cyclopenta[a]phenanthren-17-ol] | ≤ 6.00

Source: patent US12485132B2, “GPX4 inhibitors and senolytic compounds and uses thereof” (Rubedo Life Sciences, Inc., priority 2023, dated 2025)
